Here are results for six compounds from ChEMBL document CHEMBL1201862, “PubChem BioAssay data set” (2004).

Active and inactive are the calls of the source.

As usually defined, the IC50 is the concentration that gives 50% inhibition. Broadly, the EC50 is the concentration at which the effect is half-maximal. One may read the AC50 as the midpoint of the concentration-response curve, whichever way the signal moves.

The target of assay [1] is Ubiquitin carboxyl-terminal hydrolase BAP1 (Homo sapiens, UniProt Q92560). The experiment in a line: BAP1 deubiquitinase inhibitors, dose response, biochemical (AID 714). In kind it is functional.
Sequence of Ubiquitin carboxyl-terminal hydrolase BAP1 (Q92560 whole entry): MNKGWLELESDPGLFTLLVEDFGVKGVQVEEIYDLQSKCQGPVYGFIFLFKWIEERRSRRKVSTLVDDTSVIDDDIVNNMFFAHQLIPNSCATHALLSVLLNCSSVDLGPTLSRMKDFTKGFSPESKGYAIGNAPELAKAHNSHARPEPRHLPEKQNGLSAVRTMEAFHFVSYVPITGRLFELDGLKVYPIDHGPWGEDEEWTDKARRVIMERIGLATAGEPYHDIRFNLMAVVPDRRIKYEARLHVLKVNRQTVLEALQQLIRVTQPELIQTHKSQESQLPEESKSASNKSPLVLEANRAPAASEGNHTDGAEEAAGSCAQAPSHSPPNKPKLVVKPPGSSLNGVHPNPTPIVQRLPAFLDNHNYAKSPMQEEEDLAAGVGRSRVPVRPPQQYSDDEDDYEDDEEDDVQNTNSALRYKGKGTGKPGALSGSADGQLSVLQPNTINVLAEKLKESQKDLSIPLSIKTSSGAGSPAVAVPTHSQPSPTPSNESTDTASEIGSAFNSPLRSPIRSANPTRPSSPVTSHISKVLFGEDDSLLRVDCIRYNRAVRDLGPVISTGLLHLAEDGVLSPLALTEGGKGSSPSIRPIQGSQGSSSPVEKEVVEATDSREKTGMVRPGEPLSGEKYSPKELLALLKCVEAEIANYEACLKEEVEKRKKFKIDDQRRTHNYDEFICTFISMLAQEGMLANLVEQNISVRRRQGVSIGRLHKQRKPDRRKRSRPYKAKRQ
The target in assay [2] is T1, Heat shock factor protein 1 (Mus musculus, UniProt P38532).
T1 sequence (P38532 whole entry): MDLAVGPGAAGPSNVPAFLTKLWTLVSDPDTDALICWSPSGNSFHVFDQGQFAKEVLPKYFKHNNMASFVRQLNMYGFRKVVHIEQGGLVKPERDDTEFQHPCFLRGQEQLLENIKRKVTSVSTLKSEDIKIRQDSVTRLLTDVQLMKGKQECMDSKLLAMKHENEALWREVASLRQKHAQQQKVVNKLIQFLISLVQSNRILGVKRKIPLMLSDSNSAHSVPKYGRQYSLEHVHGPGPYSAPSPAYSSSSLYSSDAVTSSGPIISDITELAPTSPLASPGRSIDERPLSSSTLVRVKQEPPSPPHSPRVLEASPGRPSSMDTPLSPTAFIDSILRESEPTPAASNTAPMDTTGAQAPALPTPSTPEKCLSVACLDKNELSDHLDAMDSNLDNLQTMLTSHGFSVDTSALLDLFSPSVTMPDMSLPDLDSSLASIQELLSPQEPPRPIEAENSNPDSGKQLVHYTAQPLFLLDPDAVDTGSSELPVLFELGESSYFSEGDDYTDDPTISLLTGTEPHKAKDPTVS
The experiment in a line: HSF1 potentiators in luciferase reporter cells, confirmation, cell-based, NIH3T3, luminescence, dose retest (AID 435004).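 Also: stress induced by proteasome inhibitor MG132 added 30 min after compound; luciferase reporter driven by HSF1 response element in NIH3T3 cells; actives raise luminescence as potentiators of the MG132 stress response.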 The class given is functional. Background: A reporter such as luciferase makes a cellular process visible.

The target of a further assay is T2, NADPH oxidase 1 (Homo sapiens, UniProt Q9Y5S8).
T2 sequence (Q9Y5S8 whole entry): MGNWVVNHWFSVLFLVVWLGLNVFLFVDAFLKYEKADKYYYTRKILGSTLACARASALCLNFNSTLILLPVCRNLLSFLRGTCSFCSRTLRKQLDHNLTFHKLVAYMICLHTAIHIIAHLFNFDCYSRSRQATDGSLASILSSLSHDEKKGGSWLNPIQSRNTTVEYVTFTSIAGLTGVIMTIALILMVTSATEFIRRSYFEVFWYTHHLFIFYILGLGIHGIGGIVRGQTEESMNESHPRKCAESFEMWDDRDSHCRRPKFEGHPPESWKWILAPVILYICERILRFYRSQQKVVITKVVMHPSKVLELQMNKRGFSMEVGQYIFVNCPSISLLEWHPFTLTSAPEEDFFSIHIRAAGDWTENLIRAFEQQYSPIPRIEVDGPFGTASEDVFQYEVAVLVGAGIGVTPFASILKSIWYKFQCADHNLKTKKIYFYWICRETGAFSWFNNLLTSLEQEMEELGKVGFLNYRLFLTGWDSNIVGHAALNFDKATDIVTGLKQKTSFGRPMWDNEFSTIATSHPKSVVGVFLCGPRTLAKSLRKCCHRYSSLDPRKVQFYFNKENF
In words: Late-stage luminescence-based cell-based dose response assay to identify inhibitors of NADPH oxidase 1 (NOX1): Purchased analogs 2. The class given is functional.

Assay [3] deals with Voltage-gated inwardly rectifying potassium channel KCNH2 (Homo sapiens, UniProt Q12809). The experiment in a line: hERG protection from proarrhythmic block, potency, dose response, cell-based, thallium flux (AID 2121). The class given is ADME. A general note: hERG is a cardiac potassium channel; its block is linked to QT prolongation.
Sequence of Voltage-gated inwardly rectifying potassium channel KCNH2 (Q12809 whole entry): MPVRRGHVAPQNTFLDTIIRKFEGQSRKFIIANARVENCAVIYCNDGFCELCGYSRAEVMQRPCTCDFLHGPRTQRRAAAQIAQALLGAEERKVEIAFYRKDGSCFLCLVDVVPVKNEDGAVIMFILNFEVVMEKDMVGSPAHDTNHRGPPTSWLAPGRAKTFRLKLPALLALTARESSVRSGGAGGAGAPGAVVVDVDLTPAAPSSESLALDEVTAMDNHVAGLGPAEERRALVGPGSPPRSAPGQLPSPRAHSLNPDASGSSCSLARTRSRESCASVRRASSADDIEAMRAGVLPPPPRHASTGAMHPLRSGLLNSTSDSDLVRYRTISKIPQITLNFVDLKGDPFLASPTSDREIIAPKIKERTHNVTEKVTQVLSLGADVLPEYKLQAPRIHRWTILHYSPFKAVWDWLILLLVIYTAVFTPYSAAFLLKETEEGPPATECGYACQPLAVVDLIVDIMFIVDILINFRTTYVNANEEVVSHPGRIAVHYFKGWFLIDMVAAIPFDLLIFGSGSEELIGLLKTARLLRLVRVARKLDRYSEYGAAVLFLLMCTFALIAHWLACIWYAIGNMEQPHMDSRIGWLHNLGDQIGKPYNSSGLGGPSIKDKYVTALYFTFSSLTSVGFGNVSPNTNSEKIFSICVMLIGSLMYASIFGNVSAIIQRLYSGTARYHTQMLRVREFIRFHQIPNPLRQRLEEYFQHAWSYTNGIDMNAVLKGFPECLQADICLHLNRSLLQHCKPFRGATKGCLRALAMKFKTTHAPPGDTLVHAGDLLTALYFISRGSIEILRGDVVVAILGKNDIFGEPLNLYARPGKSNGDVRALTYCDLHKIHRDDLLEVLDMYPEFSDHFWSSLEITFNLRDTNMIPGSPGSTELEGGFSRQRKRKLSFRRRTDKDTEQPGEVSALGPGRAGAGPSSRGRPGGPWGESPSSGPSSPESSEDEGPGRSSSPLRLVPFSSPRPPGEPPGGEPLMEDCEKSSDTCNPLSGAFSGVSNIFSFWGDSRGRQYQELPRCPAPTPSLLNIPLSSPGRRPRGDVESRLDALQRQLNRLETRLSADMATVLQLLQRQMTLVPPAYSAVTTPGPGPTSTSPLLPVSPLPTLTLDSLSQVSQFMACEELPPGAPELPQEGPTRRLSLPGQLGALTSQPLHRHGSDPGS
The nature of assay [4]: Counterscreen for antagonists of the orexin 1 receptor (OX1R; HCRTR1): Fluorescence-based cell-based high throughput dose response assay to identify antagonists of the parental CHO cell line. [Related pubchem assays (depositor defined):AID434989, AID435008, AID463079, AID485270, AID492963, AID492964, AID492965, AID493232, AID504699, AID504701]. In kind it is functional.
The target in assay [5] is T3, Orexin receptor type 2 (Homo sapiens, UniProt O43614).
T3 sequence (O43614 whole entry): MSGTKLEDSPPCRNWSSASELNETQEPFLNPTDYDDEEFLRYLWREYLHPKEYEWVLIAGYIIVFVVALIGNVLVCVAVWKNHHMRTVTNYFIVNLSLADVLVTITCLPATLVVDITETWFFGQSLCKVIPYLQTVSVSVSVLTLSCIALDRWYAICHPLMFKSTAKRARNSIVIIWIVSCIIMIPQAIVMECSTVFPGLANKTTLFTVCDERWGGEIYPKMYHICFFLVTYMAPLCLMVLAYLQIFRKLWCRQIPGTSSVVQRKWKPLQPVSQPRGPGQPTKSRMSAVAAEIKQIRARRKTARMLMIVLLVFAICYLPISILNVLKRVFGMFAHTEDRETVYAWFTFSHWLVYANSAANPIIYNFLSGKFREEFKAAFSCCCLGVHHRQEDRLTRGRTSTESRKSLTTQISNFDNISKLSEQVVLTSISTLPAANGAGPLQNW
The experiment in a line: Counterscreen assay for antagonists of the orexin 1 receptor (OX1R; HCRTR1): Fluorescence-based cell-based dose response assay for antagonists of the orexin 2 receptor (OX2R; HCRTR2), run by assay provider. In kind it is functional.

Assay [6] has as its target T3, Orexin receptor type 2. The experiment in a line: Counterscreen assay for antagonists of the orexin 1 receptor (OX1R; HCRTR1): Homogeneous Time Resolved Fluorescence (HTRF)-based cell-based dose response assay for antagonists of the orexin 2 receptor (OX2R; HCRTR2), run by assay provider. The class given is functional. For orientation: Counterscreens check selectivity or assay interference.

Assay [7] deals with T4, Orexin/Hypocretin receptor type 1 (Homo sapiens, UniProt O43613).
T4 sequence (O43613 whole entry): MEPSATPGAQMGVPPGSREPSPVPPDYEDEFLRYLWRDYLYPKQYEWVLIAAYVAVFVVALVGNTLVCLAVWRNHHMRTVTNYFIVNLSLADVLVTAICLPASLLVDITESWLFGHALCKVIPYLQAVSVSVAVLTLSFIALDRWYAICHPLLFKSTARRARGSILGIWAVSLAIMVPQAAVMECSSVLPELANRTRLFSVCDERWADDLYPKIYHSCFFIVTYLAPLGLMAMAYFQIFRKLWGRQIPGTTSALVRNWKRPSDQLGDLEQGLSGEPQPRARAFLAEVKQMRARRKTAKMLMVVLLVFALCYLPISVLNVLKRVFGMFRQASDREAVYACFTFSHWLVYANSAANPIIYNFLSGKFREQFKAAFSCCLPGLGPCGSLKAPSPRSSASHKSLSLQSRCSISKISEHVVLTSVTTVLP
In words: Fluorescence-based cell-based high throughput dose response assay for antagonists of the orexin 1 receptor (OX1R; HCRTR1). [Related pubchem assays (depositor defined):AID434989, AID435008, AID463079, AID485270, AID492963, AID492964, AID492965, AID493232, AID504717, AID504718]. The class given is functional.

The target in assay [8] is T4, Orexin/Hypocretin receptor type 1. In words: Homogeneous Time Resolved Fluorescence (HTRF)-based cell-based high throughput dose response assay for antagonists of the orexin 1 receptor (OX1R; HCRTR1). [Related pubchem assays (depositor defined):AID434989, AID435008, AID463079, AID485270, AID492963, AID492964, AID492965, AID493232, AID504717, AID504718]. In kind it is functional.

The subject of a further assay is CHO-K1. In words: Counterscreen for antagonists of the orexin 1 receptor (OX1R; HCRTR1): Homogeneous time resolved fluorescence (HTRF)-based cell-based dose response assay to identify antagonists of the parental CHO-K1 cell line. [Related pubchem assays (depositor defined):AID434989, AID435008, AID463079, AID485270, AID492963, AID492964, AID492965, AID493232, AID504699, AID504701]. The class given is functional. The settings on record: Cricetulus griseus.

The next assay addresses Ephrin type-A receptor 4 (Mus musculus, UniProt Q03137). In words: inhibitors of EphA4 binding to KYL peptide, primary screen, biochemical, colorimetric, mouse EphA4 (AID 689). In kind it is functional.
For a further assay, the target named is Paired box protein Pax-8 (Homo sapiens, UniProt Q06710). In words: inhibitors of PAX8-driven TPO luciferase reporter, dose response, RMG-I cells, cherry-pick (AID 687027).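 Also: luciferase reporter driven by Pax8 target thyroperoxidase promoter measured by SteadyGlo luminescence.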 The class given is functional, cell-based.
Sequence of Paired box protein Pax-8 (Q06710 whole entry): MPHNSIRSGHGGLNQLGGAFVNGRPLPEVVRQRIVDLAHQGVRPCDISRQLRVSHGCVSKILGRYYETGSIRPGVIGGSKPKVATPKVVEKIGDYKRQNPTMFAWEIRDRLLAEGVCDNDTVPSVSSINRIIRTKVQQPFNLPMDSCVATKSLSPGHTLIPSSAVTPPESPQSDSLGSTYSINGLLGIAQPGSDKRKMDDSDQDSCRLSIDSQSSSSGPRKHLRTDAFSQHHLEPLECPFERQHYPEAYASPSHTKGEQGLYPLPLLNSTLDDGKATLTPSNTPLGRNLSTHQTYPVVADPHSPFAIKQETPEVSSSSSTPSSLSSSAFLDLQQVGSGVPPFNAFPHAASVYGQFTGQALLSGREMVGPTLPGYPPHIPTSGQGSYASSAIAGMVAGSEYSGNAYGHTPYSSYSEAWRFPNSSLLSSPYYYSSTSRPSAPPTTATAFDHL
A short description of assay [9]: cytotoxicity toward DRD oncogenic fibroblasts, dose response, cell-based, non-viral oncogenic, luminescence (AID 1934). The class given is functional. The following applies: Homo sapiens.
The subject of assay [10] is BJ. The experiment in a line: cells. The settings on record: Homo sapiens. In kind it is functional, cell-based.
Assay [11] concerns BJ. In words: cytotoxicity toward BJ-TERT fibroblasts, dose response, cell-based, RAS-independent, luminescence (AID 1933). The settings on record: Homo sapiens. The class given is functional.
The subject of the next assay is Jurkat. The experiment in a line: antigen receptor-induced NF-kB inhibitors, dose response, Jurkat, luciferase reporter, luminescence, B- and T-cell (AID 489004).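 Also: NF-kB luciferase reporter Jurkat cells stimulated with PMA plus ionomycin.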 The class given is functional, cell-based. The following applies: Homo sapiens.
Assay [12] deals with BJ. In words: cytotoxicity toward Ras-transformed BJeLR fibroblasts, dose response, cell-based, alamar blue fluorescence, cherrypicked samples (AID 2631).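 Also: confirmatory dose-response assay in RAS-dependent BJ fibroblasts engineered with TERT, LT and ST, with cytotoxicity read by fluorescence.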 The following applies: Homo sapiens. The class given is functional.
Assay [13] can be described thus: cytotoxicity in HEK-293T NF-kB-Luc cells, dose response, cytotoxicity control for B/T-cell NF-kB inhibitor project, cell-based, uHTS hits (AID 489019).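 Also: IC50 reflects cytotoxicity as loss of cell viability.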 In kind it is functional.
In assay [14] the test system is BJ. The experiment in a line: cytotoxicity toward BJ-TERT-LT-ST fibroblasts, dose response, cell-based, RAS-independent, luminescence (AID 1935).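 Also: BJ fibroblasts immortalized with TERT plus LT and ST oncogenes.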 In kind it is functional. The settings on record: Homo sapiens.
A short description of assay [15]: non-specific cell cytotoxicity, dose response, cytotoxicity control for PAX8 inhibitor project, plate reader, dry powder samples (AID 743021). The class given is functional, cell-based.
Assay [16] in a line: Luminescent dose response cell-based high throughput screening assay for inhibitors of the Janus kinase 2 mutant JAK2V617F. [Related pubchem assays: 1446 (Primary screen.), 1521 (Confirmation assay.), 1486 (Counter screen.)]. In kind it is functional.
Assay [17] can be described thus: M. tuberculosis growth inhibition, HTS (AID 449762). In kind it is functional.
Assay [18] in a line: microbe, parasite or virus in culture. The class given is functional. The settings on record: Mycobacterium tuberculosis.

Sequence of Ephrin type-A receptor 4 (Q03137 whole entry): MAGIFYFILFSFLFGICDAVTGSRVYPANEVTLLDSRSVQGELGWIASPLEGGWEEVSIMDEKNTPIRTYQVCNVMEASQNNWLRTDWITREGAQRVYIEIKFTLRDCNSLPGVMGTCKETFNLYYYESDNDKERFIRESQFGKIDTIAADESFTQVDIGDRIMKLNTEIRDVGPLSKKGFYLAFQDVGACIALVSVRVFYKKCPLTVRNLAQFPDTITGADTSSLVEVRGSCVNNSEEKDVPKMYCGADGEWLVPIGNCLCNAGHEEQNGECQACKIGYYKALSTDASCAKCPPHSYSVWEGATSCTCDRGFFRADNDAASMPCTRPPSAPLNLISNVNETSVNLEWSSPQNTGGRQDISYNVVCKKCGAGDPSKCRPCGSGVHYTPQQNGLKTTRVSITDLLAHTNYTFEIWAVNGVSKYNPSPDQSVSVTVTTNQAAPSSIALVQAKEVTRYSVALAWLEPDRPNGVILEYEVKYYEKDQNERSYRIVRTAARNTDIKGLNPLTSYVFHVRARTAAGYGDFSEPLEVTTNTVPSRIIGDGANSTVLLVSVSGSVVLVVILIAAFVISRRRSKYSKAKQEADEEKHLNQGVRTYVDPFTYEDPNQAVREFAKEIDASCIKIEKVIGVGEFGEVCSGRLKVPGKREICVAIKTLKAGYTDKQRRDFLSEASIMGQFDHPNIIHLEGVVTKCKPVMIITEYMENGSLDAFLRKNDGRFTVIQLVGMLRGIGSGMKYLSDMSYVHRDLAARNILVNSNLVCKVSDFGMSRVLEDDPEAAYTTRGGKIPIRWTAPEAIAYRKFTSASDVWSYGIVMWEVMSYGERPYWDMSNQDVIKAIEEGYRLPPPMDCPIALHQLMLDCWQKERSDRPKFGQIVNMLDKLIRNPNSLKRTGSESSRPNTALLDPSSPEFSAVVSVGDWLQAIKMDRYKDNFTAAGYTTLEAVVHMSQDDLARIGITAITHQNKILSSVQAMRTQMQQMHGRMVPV

As to `O=C1CC(c2ccoc2)CC(Nc2ccccc2)=C1C(=O)Nc1ccccc1` (stereo not drawn), the IC50 in assay [1] is given as > 50 µM (not active). In assay [2], the EC50 is > 260 µM (inactive).

On to `CC=C(NNc1c(Cl)c(Cl)nc(C(=O)O)c1Cl)c1ccccc1`, for which the IC50 against NADPH oxidase 1 was > 17 µM (not active).

Take `O=C(NC(=S)Nc1nc(-c2ccccc2)cs1)c1ccco1`: the EC50 in assay [3] was 0.15 µM (active). Also, the IC50 was > 49.7 µM (inactive) in assay [4]; > 88.8 µM (inactive) on Orexin receptor type 2 [5]; > 50 µM (inactive) on Orexin receptor type 2 [6]; > 49.7 µM (inactive) in assay [7]; 7.37 µM (active) in assay [8]; > 66.2 µM (inactive) in the assay on CHO-K1.

As for `Cc1ccc(C)c(OCc2nnc(N)s2)c1`, the IC50 at Ephrin type-A receptor 4 is given as > 100 µM (not active).

For `O=C(CCl)/N=c1\sccn1Cc1ccccc1Cl`, the AC50 is 1.64 µM (active) on Paired box protein Pax-8 and 2.74 µM (active) in [15]. The EC50 was 0.691 µM (active) in [9]; 1.33 µM (inconclusive) in the assay on BJ [10]; 0.403 µM (inconclusive) in the assay on BJ [11]; 0.343 µM (active) in the assay with BJ [12]; 12.1 µM (inconclusive) in the assay with BJ [14]. Moreover, the IC50 is 0.31 µM (active) with Jurkat, > 80 µM (inactive) in [13] and 0.442 µM (active) in [16].

On to `O=C(N/N=C/c1cn(-c2ccccc2)nc1-c1cccs1)c1ccc(Cl)cc1`, for which the IC50 in [17] was > 100 µM (active). Besides, the CC50 in assay [18] was 23.1 µM (active).
